In PMC7801736 (ACS infectious diseases, 2019):
Converted amounts (≈) assume the structure as drawn. Where two headings read alike, the source gives them in different places.

Tests used:
[1] = tested on: M. tuberculosis strain H37Rv; details: cited from earlier work
[2] = tested on: M. tuberculosis inhA overexpression strain mc^24914; assay: microbe, parasite or virus in culture; assay type: cell-based, Mycobacterium tuberculosis; details: for MIC: Mycobacterium tuberculosis
[3] = tested on: M. tuberculosis strain H37Rv; assay type: cell-based, Mycobacterium tuberculosis; details: H37Rv background
[4] = read-out: MIC (µM) mc^24914, Table 1, commercial material, […]
[5] = read-out: MIC (µM) mc^24914, Table 2, synthetic material

Row | SMILES | MIC [2, 4] | MIC [2, 5] | other results
1 | O=[N+]([O-])c1cn2c(n1)OC[C@@H](OCc1ccc(OC(F)(F)F)cc1)C2 [pretomanid] |  |  | frequency of resistance [1]: 10^−5 to 10^−6
2 | Oc1cc(Cl)ccc1Oc1ccc(Cl)cc1Cl [triclosan, reference compound] | 120 µM (≈ 34.7 µg/mL) |  | 
3 | COc1cccc(Nc2ccc([N+](=O)[O-])c3nonc23)c1 [JSF-2164, N-(3-methoxyphenyl)-7-nitrobenzo[c][1,2,5]oxadiazol-4-amine] | 30 µM (≈ 8.59 µg/mL) | 25 µM (≈ 7.16 µg/mL) | MIC shift versus the inhA overexpression strain as compared to H37Rv ([2]; mc^24914 vs H37Rv): 3 fold; mutation rate (spontaneous resistance) [3]: ~10^−5
4 | COc1cccc(Nc2ccc(N)c3nonc23)c1 [JSF-3616, N4-(3-methoxyphenyl)-benzo[c][1,2,5]oxadiazole-4,7-diamine] |  | 32 µM (≈ 8.2 µg/mL) | 
5 | COc1cccc(Nc2ccc3nonc3c2N)c1 [JSF-3617, N5-(3-methoxyphenyl)benzo[c][1,2,5]oxadiazole-4,5-diamine] |  | 125 µM (≈ 32 µg/mL) | 
6 | NNC(=O)c1ccncc1 [isoniazid, reference compound] | 2.5 µM (≈ 0.343 µg/mL) | 2.5 µM (≈ 0.343 µg/mL) | 
